Series [1] in a line: log P by HPLC on reversed-phase column (EEC Directive 79/831 Annex V.A8). The class given is physicochemical. The note with it: reversed-phase C18 HPLC column, 55° C. How it is done:
The log P values are measured according to EEC Directive 79/831 Annex V.A8 by HPLC (high-performance liquid chromatography) on a reversed-phase column (C 18). Temperature: 55° C. The LC-MS determination in the acidic range is effected at pH 2.7 using 0.1% aqueous formic acid and acetonitrile (contains 0.1% formic acid) as eluents; linear gradient from 10% acetonitrile to 95% acetonitrile. Called log P (HCOOH) in the table. LC-MS determination in the neutral range is effected at pH 7.8 with 0.001 molar aqueous ammonium hydrogencarbonate solution and acetonitrile as eluents; linear gradient from 10% acetonitrile to 95% acetonitrile. Called log P (neutral) in the table. Calibration is carried out using unbranched alkan-2-ones (having 3 to 16 carbon atoms) with known log P values (log P values determined on the basis of the retention times by linear interpolation between two successive alkanones).

Another series has as its system Phaedon cochleariae. Briefly: Phaedon cochleariae spray test. As to conditions: foliar, 168 h, larvae on Chinese cabbage leaf discs, after 7 days, read-out: efficacy. It counts as in vivo. The protocol: (§1) To produce a suitable active ingredient preparation, 1 part by weight of active ingredient is dissolved with the stated parts by weight of solvent and made up with water containing an emulsifier concentration of 1000 ppm until the desired concentration is attained. To produce further test concentrations, the preparation is diluted with emulsifier-containing water. Discs of Chinese cabbage leaves (Brassica pekinensis) are sprayed with an active ingredient preparation of the desired concentration and, after drying, populated with larvae of the mustard beetle (Phaedon cochleariae). After 7 days, the efficacy in % is determined. 100% means that all the beetle larvae have been killed; 0% means that no beetle larvae have been killed.

The test system of a further series is Spodoptera frugiperda. The series is described as follows: Spodoptera frugiperda spray test. The note with it: foliar, 168 h, caterpillars on maize leaf discs, after 7 days, read-out: efficacy. It counts as in vivo. The protocol:
as §1, with “water. Leaf discs” for “water. Discs”, “of maize (Zea mays)” for “of Chinese cabbage leaves (Brassica pekinensis)”, “with caterpillars” for “with larvae”, “the armyworm (Spodoptera frugiperda).” for “the mustard beetle (Phaedon cochleariae).”, “the caterpillars” for “the beetle larvae”, “no caterpillar has” for “no beetle larvae have”

The next series concerns Myzus persicae. The series is described as follows: Myzus persicae spray test. It counts as in vivo. The note with it: foliar, Chinese cabbage leaf discs, after 5-6 days, read-out: efficacy. How it is done:
as §1, with “pekinensis) infested by all stages of the green peach aphid (Myzus persicae)” for “pekinensis)”, “concentration.” for “concentration and, after drying, populated with larvae of the mustard beetle (Phaedon cochleariae).”, “5-6” for “7”, “aphids” for “beetle larvae”

Setting [2] is: pH 7.8, aqueous ammonium hydrogencarbonate/acetonitrile, read-out: log P (neutral).
[3] abbreviates: pH 2.7, 0.1% aqueous formic acid/acetonitrile, read-out: log P (acidic).

Experimental findings from US10550116B2, “Fused bicyclic heterocycle derivatives as pesticides” (BAYER CROPSCIENCE AKTIENGESELLSCHAFT, priority 2015, dated 2020) are described below.

Read-outs that look alike come from different tables or passages of the source.

Turning to `CCSc1cc2ccccc2nc1C(=O)Nc1cc(C(F)(F)F)cnc1Cl` [IV-1], in series [1] (setting [2]), the chromatographic logP worked out at 5.71.
On the same count and under the same terms, under `COC(=O)c1ccc2ncccc2n1` [XXII-2, Methyl 1,5-naphthyridine-2-carboxylate] stands 0.92.
For the molecule `CCSc1cc2ccccc2nc1-c1nc2cc(C(F)(F)F)cnc2n1C` [Example I-25], the pest or weed control at 500 g/ha in the series on Phaedon cochleariae and in the series with Spodoptera frugiperda was 100% throughout.
Regarding `CC[S+]([O-])c1cc2ccccc2nc1-c1nc2cc(C(F)(F)F)cnc2o1` (centres unmarked) [Example I-28], the chromatographic logP in series [1] (setting [2]) came to 2.98.
As for `Cn1c(-c2nc3ccc(Cl)cc3cc2Cl)nc2cc(C(F)(F)F)ncc21` [Example V-4, 3,6-Dichloro-2-[3-methyl-6-(trifluoromethyl)imidazo[4,5-c]pyridin-2-yl]quinoline], the chromatographic logP in series [1] (setting [2]) worked out at 3.53.
On the same count and under the same terms, under `CCS(=O)(=O)c1cc2ccccc2nc1-c1nc2cc(S(=O)(=O)C(F)(F)F)ccc2n1C` [Example I-24, 3-Ethylsulphonyl-2-[1-methyl-5-(trifluoromethylsulphonyl)benzimidazol-2-yl]quinoline] stands 3.42; under `Cn1c(-c2nc3ccccc3nc2Cl)nc2cc(C(F)(F)F)ncc21` [Example V-2, 2-Chloro-3-[3-methyl-6-(trifluoromethyl)imidazo[4,5-c]pyridin-2-yl]quinoxaline], 2.84.
Regarding `CCS(=O)(=O)c1cc2ccccc2nc1-c1nc2cc(C(F)(F)F)ccc2n1C` [Example I-12], the pest or weed control at 500 g/ha in the series on Phaedon cochleariae is 100%; in the series with Spodoptera frugiperda it was 100%; in the series on Myzus persicae, 90%.
For the molecule `CCS(=O)(=O)c1c(-c2nc3cc(C(F)(F)F)ncc3n2C)ncc2ccccc12` [I′-44], the pest or weed control at 500 g/ha in the series on Phaedon cochleariae was 83%; in the series with Spodoptera frugiperda it was 100%; with Myzus persicae, 90%.
`CCSc1ccc2nc(-c3nc4cc(C(F)(F)F)ncc4n3C)c(SCC)cc2c1` [3,6-bis(ethylsulphanyl)-2-[3-methyl-6-(trifluoromethyl)imidazo[4,5-c]pyridin-2-yl]quinoline]: the chromatographic logP in series [1] (setting [2]) stood at 4.35.
Regarding `CCSc1cc2ccccc2nc1C(=O)CBr` [2-Bromo-1-[3-(ethylsulphanyl)quinolin-2-yl]ethanone], the chromatographic logP in series [1] (setting [3]) amounted to 3.95.
For the molecule `CCSc1cc2ccccc2nc1-c1nc2cc(C(F)(F)F)ncc2n1C` [Example I-2, 3-Ethylsulphanyl-2-[3-methyl-6-(trifluoromethyl)imidazo[4,5-c]pyridin-2-yl]quinoline], the chromatographic logP in series [1] (setting [2]) is 3.3. Further, the pest or weed control at 500 g/ha in the series with Spodoptera frugiperda was 100%. In addition, the pest or weed control at 100 g/ha with Myzus persicae was found to be 100%.
Regarding `COC(=O)c1nc2ccc(Cl)nc2cc1Cl` [XXXI-2, Methyl 3,6-dichloro-1,5-naphthyridine-2-carboxylate], in series [1] (setting [2]), the chromatographic logP amounted to 2.46.
Regarding `CCSc1cc2ccccc2nc1-c1nc2cc3c(cc2[nH]1)OC(F)(F)O3` [Example I-31, 6-(3-Ethylsulphanyl-2-quinolyl)-2,2-difluoro-5H-[1,3]dioxolo[4,5-f]benzimidazole], in series [1] (setting [2]), the chromatographic logP stood at 4.26.
The same measure, in the same setting: under `CCSc1cc2ccccc2nc1-c1nc2cc(C(F)(F)F)cnc2o1` [Example I-27] stands 4.36; under `CCSc1cc2ccccc2nc1C(C)=O` [1-[3-(Ethylsulphanyl)quinolin-2-yl]ethanone], 3.31; under `Cn1c(-c2nc3ccccc3cc2Cl)nc2cc(C(F)(F)F)ncc21` [Example V-1, 3-Chloro-2-[3-methyl-6-(trifluoromethyl)imidazo[4,5-c]pyridin-2-yl]quinoline], 2.89.
For the molecule `CCSc1cc2cc(Cl)ccc2nc1-c1nc2cc(C(F)(F)F)ncc2n1C` [6-Chloro-3-ethylsulphanyl-2-[3-methyl-6-(trifluoromethyl)imidazo[4,5-c]pyridin-2-yl]quinoline], the chromatographic logP in series [1] (setting [2]) was 3.99.
Turning to `COC(=O)c1nc2ncc(Cl)cc2cc1Cl` [XXXI-1, Methyl 3,6-dichloro-1,8-naphthyridine-2-carboxylate], the chromatographic logP in series [1] (setting [2]) amounted to 1.93.
Take `CC[S+]([O-])c1cc2ccccc2nc1-c1nc2cc(SC(F)(F)F)ccc2o1` (centres unmarked) [Example I-30]: the pest or weed control at 500 g/ha was found to be 83% in the series with Phaedon cochleariae, 100% in the series with Spodoptera frugiperda and 70% in the series with Myzus persicae.
Turning to `O=C(O)c1ccc2cccnc2n1` [XXX-1, 1,8-Naphthyridine-2-carboxylic acid], in series [1] (setting [3]), the chromatographic logP was -0.12.
`CCS(=O)(=O)c1nc2ccccc2nc1-c1nc2cc(C(F)(F)F)ncc2n1C` [Example I-3, 2-Ethylsulphonyl-3-[3-methyl-6-(trifluoromethyl)imidazo[4,5-c]pyridin-2-yl]quinoxaline]: the chromatographic logP in series [1] (setting [2]) turned out to be 2.45.
Regarding `CCSc1cc2ccccc2nc1-c1cn2cnc(C(F)(F)F)cc2n1` [Example I-46, 3-(Ethylsulphanyl)-2-[7-(trifluoromethyl)imidazo[1,2-c]pyrimidin-2-yl]quinoline], the chromatographic logP in series [1] (setting [2]) is 3.24.
For the molecule `CCS(=O)(=O)c1cc2ccccc2nc1-c1nc2cc(C(F)(F)F)ccc2o1` [Example I-17], the pest or weed control at 500 g/ha stood at 100% in the series on Phaedon cochleariae, 100% in the series with Spodoptera frugiperda and 90% in the series on Myzus persicae.
As for `CCS(=O)(=O)c1cc2ccccc2nc1-c1nc2cc(C(F)(F)C(F)(F)F)cnc2n1C` [Example I-20], the pest or weed control at 100 g/ha in the series on Phaedon cochleariae (100 g/ha), with Spodoptera frugiperda (100 g/ha) and in the series with Myzus persicae was 100% in each case.
As for `CCSc1cc2ccccc2nc1C(=O)O` [3-(Ethylsulphanyl)quinoline-2-carboxylic acid], the chromatographic logP in series [1] (setting [2]) was 0.48.
On to `CCS(=O)(=O)c1cc2ccccc2nc1-c1nc2cc3c(cc2[nH]1)OC(F)(F)O3` [Example I-15, 6-(3-Ethylsulphonyl-2-quinolyl)-2,2-difluoro-5H-[1,3]dioxolo[4,5-f]benzimidazole], for which the pest or weed control at 500 g/ha in the series on Phaedon cochleariae and in the series on Spodoptera frugiperda was 100% each time. Further, the chromatographic logP in series [1] (setting [2]) was determined as 3.37.
With `CCSc1cc2ccccc2nc1C(=O)N(C)OC` [3-(Ethylsulphanyl)-N-methoxy-N-methylquinoline-2-carboxamide], the chromatographic logP in series [1] (setting [2]) is 2.17.
As for `O=C(O)c1nc2ncc(Cl)cc2cc1Cl` [III-1, 3,6-Dichloro-1,8-naphthyridine-2-carboxylic acid], in series [1] (setting [3]), the chromatographic logP was 0.7.
For the molecule `CCS(=O)(=O)c1cc2cc(Cl)ccc2nc1-c1nc2cc(C(F)(F)F)ncc2n1C` [Example I-7], the pest or weed control at 500 g/ha with Phaedon cochleariae turned out to be 100%; in the series on Spodoptera frugiperda it was 100%; with Myzus persicae, 90%.
With `COC(=O)c1ccc2cccnc2n1` [XXII-1, Methyl 1,8-naphthyridine-2-carboxylate], the chromatographic logP in series [1] (setting [2]) is 0.77.
Regarding `Cn1c(-c2nc3ncc(Cl)cc3cc2Cl)nc2cc(C(F)(F)F)ncc21` [Example V-3, 3,6-Dichloro-2-[3-methyl-6-(trifluoromethyl)-3H-imidazo[4,5-c]pyridin-2-yl]-1,8-naphthyridine], the chromatographic logP in series [1] (setting [2]) worked out at 2.44.
In the case of `CCSc1cc2ccccc2nc1-c1nc2cc(C(F)(F)C(F)(F)F)ncc2n1C` [Example I-35], the results for the pest or weed control at 500 g/ha in the series with Phaedon cochleariae and in the series with Spodoptera frugiperda were 83% and 100%, respectively.
For the molecule `CCS(=O)(=O)c1cc2ccccc2nc1-c1nc2cc(C(F)(F)F)cnc2n1C` [Example I-5], the pest or weed control at 500 g/ha was found to be 100% in the series on Phaedon cochleariae, 100% with Spodoptera frugiperda and 70% in the series with Myzus persicae.
Turning to `CCS(=O)(=O)c1cnc2nc(-c3nc4cc(C(F)(F)F)ncc4n3C)c(S(=O)(=O)CC)cc2c1` [Example I-41, 3,6-Bis(ethylsulphonyl)-2-[3-methyl-6-(trifluoromethyl)-3H-imidazo[4,5-c]pyridin-2-yl]-1,8-naphthyridine], in series [1] (setting [2]), the chromatographic logP came out at 2.21. Moreover, the pest or weed control at 500 g/ha in the series on Myzus persicae was 90%.
